The source made the active and inactive calls.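 Rule for the calls: active = minimum cell viability of 80% or lower across the dose range, counted as toxic; inactive = minimum cell viability above 80%.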
Experiments:
[1] = viability loss in fusion assay cells – cell-based, MAGI and MAGI-HeLa co-culture, cytotoxicity control for HIV-1 fusion inhibitor project, dose response (AID 2286); conditions: MAGI-CCR5 cells viability, CellTiter-Glo ATP luminescence; for minimum viability: measured here: MAGI minimum viability across doses;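 for all read-outs here: cells exposed to compound for at least 64 h before ATP readout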;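 for minimum viability: 100% = median of DMSO vehicle wells with no ATP signal meaning 0%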;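 for viability: 100% = median of DMSO vehicle wells with no ATP signal meaning 0%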
[2] = test system: MAGI-CCR5 cells viability, CellTiter-Glo ATP luminescence; experiment: as above
[3] = MAGI-HeLa co-culture viability, at 50 µM, stronger effect = lower value
[4] = measured here: MAGI + HeLa-R5-16 co-culture viability

Structure (SMILES) | viability [1, 3] | minimum viability ([1]; at 50 µM, stronger effect = lower value) | CC50 [2] | CC50 [2, 4] | viability ([1]; at 50 µM (top of the series)) | minimum viability ([1]; at 25 µM, stronger effect = lower value)
O=C(N/N=C/c1ccc(-c2ccc(S(=O)(=O)Nc3ncccn3)cc2)o1)c1cc2ccccc2cc1O | 30.7% | 16.4% | 15.8 µM | 32.6 µM |  | 
O=S(=O)(Nc1nc(-c2sccc2Cl)cs1)c1cc(Cl)ccc1Cl | 70.8% | 47.7% |  | > 50 µM |  | 
CCS(=O)(=O)C1=NN2C(=N)/C(=C\c3ccc(OCCOc4cccc(OC)c4)c(OC)c3)C(=O)N=C2S1 | 50% | 83.7% |  | 40.1 µM | 83.7% (inactive) | 
COc1cc(/C=C2/SC(=S)N(Cc3ccccc3)C2=O)ccc1OCC(=O)O | 79% | 4.94% | 30.2 µM | > 50 µM |  | 
O=C(O)c1ccccc1NC(=O)c1ccccc1Nc1ccccc1 | 58.2% | 47.6% | 42.7 µM | > 50 µM |  | 
N#C/C(=C\c1ccc(O)c([N+](=O)[O-])c1)c1nc2ccccc2s1 | 41.9% | 21.9% | 11.7 µM | 43.8 µM |  | 
Cc1cc(Cl)ccc1OC(C)C(=O)Nc1ccc(C(=O)Nc2ccccc2C(=O)O)cc1 (centres undefined) | 63.6% | 49.8% | 48.8 µM | > 50 µM |  | 
COc1ccc(C(=O)/C=C/c2ccc(OCc3ccccc3)cc2)cc1CSCC(=O)O | 86.3% | 42.6% | 46 µM |  |  | 
O=C(O)CN1C(=O)/C(=C\c2cc(Br)ccc2OCc2ccc(Cl)cc2Cl)SC1=S | 37.6% | 93.8% |  | 25.6 µM | 93.8% (inactive) | 
O=C(O)CCn1cc(/C=C/C(=O)c2ccc(Cl)cc2)c(-c2ccc(Br)cc2)n1 | 36.4% | 11.5% | 30.7 µM | 45.5 µM |  | 
O=C(N/N=C/c1cc(Cl)cc([N+](=O)[O-])c1O)NC12CC3CC(CC(C3)C1)C2 | 55.7% | 49.2% | 48.7 µM | > 50 µM |  | 
Cc1nn(CCc2nn[nH]n2)c2nc(-c3ccc(C4CCCCC4)cc3)cc(C(F)(F)F)c12 | 66.9% | 42.9% | 36.3 µM | > 50 µM |  | 
O=[N+]([O-])c1cc([N+](=O)[O-])c2oc(-c3ccccc3)c(Br)c2c1O | 57.6% | 34.5% | 22.5 µM | > 50 µM |  | 
Cc1cccc(C)c1-n1cccc1/C=C1\SC(=S)N(c2cccc(C(=O)O)c2)C1=O | 67.8% | 62.3% |  | > 50 µM |  | 
Cc1ccccc1C(=O)Nc1cccc(C(=O)N/N=C/c2cc(Cl)cc([N+](=O)[O-])c2O)c1 | 68.4% | 52.8% |  | > 50 µM |  | 
O=C1NC(=Nc2ccccc2Cl)S/C1=C\c1cccc([N+](=O)[O-])c1O | 73.6% | 72.6% |  | > 50 µM |  | 
O=C(NN1C(=O)/C(=C\c2ccc(O)c([N+](=O)[O-])c2)SC1=S)c1ccccc1Cl | 69.9% | 62.8% |  | > 50 µM |  | 
O=C(NN1C(=O)/C(=C/c2ccc(O)cc2)SC1=S)c1ccccc1O | 36.5% | 27.6% | 26.7 µM | 41.3 µM |  | 
COc1cc([N+](=O)[O-])cc(/C=C2/SC(=S)N(Cc3ccccc3)C2=O)c1O | 16.4% |  | 8.44 µM | 29.2 µM |  | 5.81%
COc1ccc(-c2nn(-c3ccccc3)cc2/C=C2/SC(=S)N(CCCC(=O)O)C2=O)c(C)c1 | 68.8% | 57% |  | > 50 µM |  | 
CC(/C=C1\SC(=S)N(CCCC(=O)Nc2ccc(C(=O)O)cc2)C1=O)=C\c1ccccc1 | 69.6% | 60.9% |  | > 50 µM |  | 
CCOc1cc(/C=C2\C(=N)N3N=C(S(C)(=O)=O)SC3=NC2=O)ccc1OCCOc1cccc(OC)c1 | 47.3% | 78% |  | 43.2 µM |  | 

From PubChem BioAssay AID2286 (Southern Research Specialized Biocontainment Screening …, 2010)
